Experimental data taken from ChEMBL document CHEMBL1208701, “Structure-activity relationship of indoline-2-carboxylic acid N-(substituted)phenylamide derivatives” (Bioorg Med Chem Lett, 2010).

Key:
RAW264.7 = experiment: Inhibition of LPS-induced NF-kappaB transcriptional activity in mouse RAW264.7 cells at 100 uM; type: cell-based
[1] = Inhibition of LPS-induced NF-kappaB transcriptional activity in mouse RAW264.7 cells; type: cell-based
PC-3 = experiment: Cytotoxicity against human PC3 cells; type: functional
NCI-H23 = experiment: Cytotoxicity against human NCI-H23 cells; type: functional
MDA-MB-231 = experiment: Cytotoxicity against human MDA-MB-231 cells; type: functional
HCT-15 = experiment: Cytotoxicity against human HCT15 cells; type: functional
ACHN = experiment: Cytotoxicity against human ACHN cells; type: functional
NUGC-3 = experiment: Cytotoxicity against human NUGC3 cells; type: functional

SMILES | inhibition (RAW264.7) [%] | IC50 [1] [µM] | other results
CC(C)(C)OC(=O)N1c2ccccc2CC1C(=O)Nc1ccccc1O (stereo unspecified) | 93 | – | –
O=C(Nc1ccc(Cl)cc1)C1Cc2ccccc2N1 (stereo unspecified) | 62 | 70.7 | –
Cc1ccc(NC(=O)C2Cc3ccccc3N2)cc1 (stereo unspecified) | 41 | > 100 | –
O=C(Nc1cccc(C(F)(F)F)c1)C1Cc2ccccc2N1 (stereo unspecified) | 99 | 46 | GI50 (PC-3): 4.24 µM; GI50 (NCI-H23): 4.96 µM
O=C(Nc1cccc([N+](=O)[O-])c1)C1Cc2ccccc2N1 (stereo unspecified) | 49 | > 100 | –
CC(C)(C)OC(=O)N1c2ccccc2CC1C(=O)Nc1cccc(O)c1 (stereo unspecified) | 75 | 58.7 | –
Cc1ccccc1NC(=O)C1Cc2ccccc2N1 (stereo unspecified) | 39 | > 100 | –
CC(C)(C)OC(=O)N1c2ccccc2CC1C(=O)Nc1ccc(Cl)c(Cl)c1 (stereo unspecified) | 97 | 12.6 | GI50 (PC-3): 4.66 µM; GI50 (NCI-H23): 3.19 µM
COc1cccc(NC(=O)C2Cc3ccccc3N2)c1 (stereo unspecified) | 64 | – | –
O=C(Nc1cc(Cl)cc(Cl)c1)C1Cc2ccccc2N1 (stereo unspecified) | 98 | – | GI50 (PC-3): 2.53 µM; GI50 (NCI-H23): 12.3 µM
Cc1ccc(S(=O)(=O)N2c3ccccc3CC2C(=O)Nc2ccc(C(F)(F)F)cc2)cc1 (stereo unspecified) | – | > 100 | GI50 (PC-3): 6.68 µM; GI50 (MDA-MB-231): > 10 µM; GI50 (NCI-H23): 8.97 µM; GI50 (HCT-15): > 10 µM; GI50 (ACHN): > 10 µM; GI50 (NUGC-3): > 10 µM
COc1ccc(NC(=O)C2Cc3ccccc3N2)cc1 (stereo unspecified) | 37 | > 100 | –
CC(C)(C)OC(=O)N1c2ccccc2CC1C(=O)Nc1ccccc1[N+](=O)[O-] (stereo unspecified) | 63 | – | –
COc1cc2c(cc1O)CCC(C(=O)Nc1ccccc1)O2 (stereo unspecified) | 90 | 40.1 | GI50 (NCI-H23): 9.32 µM
O=C(Nc1ccccc1O)C1Cc2ccccc2N1 (stereo unspecified) | 37 | > 100 | –
O=C(Nc1cc(Cl)ccc1Cl)C1Cc2ccccc2N1 (stereo unspecified) | 34 | > 100 | –
CC(C)(C)OC(=O)N1c2ccccc2CC1C(=O)Nc1ccc([N+](=O)[O-])cc1 (stereo unspecified) | > 100 | – | GI50 (PC-3): 2.79 µM; GI50 (NCI-H23): 2.52 µM
CC(C)(C)OC(=O)N1c2ccccc2CC1C(=O)Nc1ccccc1Cl (stereo unspecified) | 50 | – | –
CC(C)(C)OC(=O)N1c2ccccc2CC1C(=O)Nc1ccc(O)cc1 (stereo unspecified) | 42 | > 100 | –
COc1ccccc1NC(=O)C1Cc2ccccc2N1 (stereo unspecified) | 60 | 79.2 | –
O=C(Nc1cc(Cl)cc(Cl)c1)C1Cc2ccccc2N1C(=O)c1ccccc1 (stereo unspecified) | – | 46.5 | GI50 (PC-3): 6.84 µM; GI50 (MDA-MB-231): 6.42 µM; GI50 (NCI-H23): 4.28 µM; GI50 (ACHN): 8.26 µM; GI50 (NUGC-3): 7.97 µM
Cc1cc(C)cc(NC(=O)C2Cc3ccccc3N2)c1 (stereo unspecified) | 56 | 85 | –

SMILES | inhibition (RAW264.7) [%] | IC50 [1] [µM] | other results
O=C(Nc1ccccc1C(F)(F)F)C1Cc2ccccc2N1 (stereo unspecified) | 61 | 79.4 | –
O=C(Nc1ccccc1)C1Cc2ccccc2N1 (stereo unspecified) | 65 | 71.6 | –
Cc1ccc(NC(=O)C2Cc3ccccc3N2C(=O)OC(C)(C)C)cc1C (stereo unspecified) | 64 | – | –
CC(C)(C)OC(=O)N1c2ccccc2CC1C(=O)Nc1ccc(C(F)(F)F)cc1 (stereo unspecified) | > 100 | 12 | GI50 (PC-3): 2.02 µM; GI50 (NCI-H23): 3.21 µM
Cc1ccccc1NC(=O)C1Cc2ccccc2N1C(=O)OC(C)(C)C (stereo unspecified) | 68 | 62.5 | –
Cc1ccc(C)c(NC(=O)C2Cc3ccccc3N2)c1 (stereo unspecified) | 47 | > 100 | –
COc1ccccc1NC(=O)C1Cc2ccccc2N1C(=O)OC(C)(C)C (stereo unspecified) | 76 | – | –
O=C(Nc1ccc(C(F)(F)F)cc1)C1Cc2ccccc2N1C(=O)c1ccccc1 (stereo unspecified) | – | 13.5 | GI50 (NCI-H23): 4.58 µM; GI50 (HCT-15): 5.49 µM; GI50 (NUGC-3): 8.72 µM
O=C(Nc1ccc(Cl)c(Cl)c1)C1Cc2ccccc2N1 (stereo unspecified) | 72 | – | GI50 (NCI-H23): 11.6 µM
Cc1cccc(NC(=O)C2Cc3ccccc3N2C(=O)OC(C)(C)C)c1 (stereo unspecified) | 87 | – | –
CC(NC(=O)OC(C)(C)C)C(=O)N1c2ccccc2CC1C(=O)Nc1cc(Cl)cc(Cl)c1 (stereo unspecified) | – | 5.9 | GI50 (PC-3): 4.43 µM; GI50 (NCI-H23): 6.71 µM; GI50 (HCT-15): 4.33 µM; GI50 (ACHN): 5.04 µM; GI50 (NUGC-3): 6.21 µM
O=C(Nc1ccc(C(F)(F)F)cc1)C1Cc2ccccc2N1 (stereo unspecified) | 56 | 79.2 | –
CC(C)(C)OC(=O)N1c2ccccc2CC1C(=O)Nc1cccc(C(F)(F)F)c1 (stereo unspecified) | > 100 | – | GI50 (PC-3): 3.34 µM; GI50 (NCI-H23): 6.34 µM
Cc1cc(C)cc(NC(=O)C2Cc3ccccc3N2C(=O)OC(C)(C)C)c1 (stereo unspecified) | 78 | 16.6 | –
Cc1cccc(NC(=O)C2Cc3ccccc3N2)c1 (stereo unspecified) | 29 | > 100 | –
O=C(Nc1cc(C(F)(F)F)cc(C(F)(F)F)c1)C1Cc2ccccc2N1 (stereo unspecified) | 96 | 12 | GI50 (PC-3): 0.794 µM; GI50 (NCI-H23): 0.648 µM
COc1cccc2c1C(=O)c1c(O)c3c(c(O)c1C2=O)C[C@@](O)(C(=O)CO)C[C@@H]3O[C@H]1C[C@H](N)[C@H](O)[C@H](C)O1 [DOXORUBICIN] | – | – | GI50 (PC-3): 0.317 µM; GI50 (MDA-MB-231): 0.194 µM; GI50 (NCI-H23): 0.178 µM; GI50 (HCT-15): 2.18 µM; GI50 (ACHN): 0.182 µM; GI50 (NUGC-3): 0.202 µM
O=C(Nc1ccccc1Cl)C1Cc2ccccc2N1 (stereo unspecified) | 62 | 69.7 | –
COc1cc(NC(=O)C2Cc3ccccc3N2C(=O)OC(C)(C)C)cc(OC)c1 (stereo unspecified) | 88 | – | –
CC(C)(C)OC(=O)N1c2ccccc2CC1C(=O)Nc1cc(Cl)ccc1Cl (stereo unspecified) | 71 | 45.9 | –
Cc1ccc(NC(=O)C2Cc3ccccc3N2C(=O)OC(C)(C)C)cc1 (stereo unspecified) | 37 | > 100 | –
CC(C)(C)OC(=O)N1c2ccccc2CC1C(=O)Nc1ccc(Cl)cc1 (stereo unspecified) | 31 | > 100 | –

SMILES | inhibition (RAW264.7) [%] | IC50 [1] [µM] | other results
CC(C)(C)OC(=O)N1c2ccccc2CC1C(=O)Nc1ccccc1C(F)(F)F (stereo unspecified) | 38 | > 100 | –
O=C(Nc1ccc([N+](=O)[O-])cc1)C1Cc2ccccc2N1 (stereo unspecified) | 41 | > 100 | –
CC(C)(C)OC(=O)N1c2ccccc2CC1C(=O)Nc1ccccc1 (stereo unspecified) | 30 | > 100 | –
COc1ccc(NC(=O)C2Cc3ccccc3N2C(=O)OC(C)(C)C)cc1OC (stereo unspecified) | 65 | 52.2 | –
COc1ccc(OC)c(NC(=O)C2Cc3ccccc3N2C(=O)OC(C)(C)C)c1 (stereo unspecified) | 76 | – | –
COc1ccc(OC)c(NC(=O)C2Cc3ccccc3N2)c1 (stereo unspecified) | 47 | > 100 | –
O=C(Nc1ccccc1[N+](=O)[O-])C1Cc2ccccc2N1 (stereo unspecified) | 41 | > 100 | –
CC(C)(C)OC(=O)N1c2ccccc2CC1C(=O)Nc1cc(C(F)(F)F)cc(C(F)(F)F)c1 (stereo unspecified) | – | 14.9 | GI50 (PC-3): 0.838 µM; GI50 (NCI-H23): 1.52 µM
O=C(Nc1cccc(O)c1)C1Cc2ccccc2N1 (stereo unspecified) | 30 | > 100 | –
Cc1ccc(C)c(NC(=O)C2Cc3ccccc3N2C(=O)OC(C)(C)C)c1 (stereo unspecified) | 75 | 50 | –
O=C(Nc1cccc(Cl)c1)C1Cc2ccccc2N1 (stereo unspecified) | 63 | – | –
CC(C)(C)OC(=O)N1c2ccccc2CC1C(=O)Nc1cccc([N+](=O)[O-])c1 (stereo unspecified) | 94 | 14.1 | –
COc1ccc(NC(=O)C2Cc3ccccc3N2)cc1OC (stereo unspecified) | 15 | > 100 | –
COc1ccc(NC(=O)C2Cc3ccccc3N2C(=O)OC(C)(C)C)cc1 (stereo unspecified) | 29 | > 100 | –
COc1cccc(NC(=O)C2Cc3ccccc3N2C(=O)OC(C)(C)C)c1 (stereo unspecified) | 38 | > 100 | –
CC(C)(C)OC(=O)N1c2ccccc2CC1C(=O)Nc1cc(Cl)cc(Cl)c1 (stereo unspecified) | – | 10.1 | GI50 (PC-3): 1.68 µM; GI50 (NCI-H23): 3.39 µM
Cc1ccc(NC(=O)C2Cc3ccccc3N2)cc1C (stereo unspecified) | 87 | 43.3 | –
CC(C)(C)OC(=O)N1c2ccccc2CC1C(=O)Nc1cccc(Cl)c1 (stereo unspecified) | > 100 | – | GI50 (NCI-H23): 3.23 µM
COc1cc(NC(=O)C2Cc3ccccc3N2)cc(OC)c1 (stereo unspecified) | 41 | > 100 | –
O=C(Nc1ccc(O)cc1)C1Cc2ccccc2N1 (stereo unspecified) | 63 | 66.2 | –
